Entries after “also recorded” stand apart in the source; their conditions may differ.
What was measured:
Assay type in all cases: cell-based, human
TNF-α [1] = test: TNF-α induction in THP-1 cells by compound alone (ELISA); settings: 10 or 100 μg/mL
Method: (§1) Experiments were conducted to determine the role for the MTX residue. Given its location in the capping motif in LAM from M. tuberculosis, it was hypothesized that the residue may function as an immunomodulatory species. Thus, the ability of 3 and 34 to induce or inhibit the production of the TNF-α and IL-12p70 was evaluated using a human monocytic cell line (THP-1). THP-1 cells were re-suspended at a concentration of 5×10^6 cells/mL in RPMI 1640+10% FCS+1% GPS (200 mM penicillin/streptomycin (Sigma UK)+2 mM L-glutamine (Invitrogen)) and plated into a 48-well plate (500 μL/well). Cells were treated with either 3 or 34 (100 μg and 10 μg/mL) or AraLAM or ManLAM (10 μg/mL) for 24 hours and then stimulated for a further 8 hours with a combination of Staphylococcus aureus Cowan (SAC) (Pansorbin™, Calbiochem, UK) and human IFNγ (1000 U/mL, Preprotech). Following incubation, the supernatants were collected and stored in 200 μL aliquots (−80° C.) and analyzed by ELISA (R&D systems) for IL12p70 and TNF-α production.

IL-12p70 [2] = test: IL-12p70 induction in THP-1 cells by compound alone (ELISA); settings: 10 or 100 μg/mL
Method: as §1

TNF-α [3] = test: Inhibition of IFN-γ/SAC-induced TNF-α production in THP-1 cells after pre-incubation (ELISA); settings: for inhibition of TNF-α production induced by IFN-γ/SAC / induction of TNF-α production in the IFN-γ/SAC assay: 5 μM, FIG. 12; for inhibition of TNF-α response induced by IFN-γ/SAC: FIG. 11A; for inhibition of the cytokine response (TNF-α) induced by IFN-γ/SAC: general statement, no concentration given
IL-12p70 [4] = test: Inhibition of IFN-γ/SAC-induced IL-12p70 production in THP-1 cells after pre-incubation (ELISA); settings: for inhibition of IL-12p70 production induced by IFN-γ/SAC: 5 μM, FIG. 13; for inhibition of IL-12p70 response induced by IFN-γ/SAC: 10 or 100 μg/mL, FIG. 11B; for inhibition of the cytokine response (IL-12p70) induced by IFN-γ/SAC: general statement, no concentration given

Structure (SMILES) | induction of TNF-α production (TNF-α [1]) | induction of IL-12p70 production (IL-12p70 [2]) | inhibition of TNF-α production induced by IFN-γ/SAC (TNF-α [3]) | inhibition of TNF-α response induced by IFN-γ/SAC (TNF-α [3]; 10 μg/mL) | inhibition of the cytokine response (TNF-α) induced by IFN-γ/SAC (TNF-α [3]) | inhibition of IL-12p70 production induced by IFN-γ/SAC (IL-12p70 [4]) | inhibition of IL-12p70 response induced by IFN-γ/SAC (IL-12p70 [4]) | inhibition of the cytokine response (IL-12p70) induced by IFN-γ/SAC (IL-12p70 [4]) | induction of TNF-α production in the IFN-γ/SAC assay (TNF-α [3]) | inhibition of TNF-α response induced by IFN-γ/SAC (TNF-α [3]; 100 μg/mL)
CO[C@H]1OC(CO)[C@@H](O[C@H]2O[C@H](C[S+](C)[O-])C(O)[C@@H]2O)[C@H](O)C1O (mixture of isomers) [Compound 34] | Neither 3 nor 34, when tested at concentrations of 10 or 100 μg/mL, significantly induced the production of these two cytokines; also recorded: did not lead to production | Neither 3 nor 34, when tested at concentrations of 10 or 100 μg/mL, significantly induced the production of these two cytokines; also recorded: did not lead to production | weaker inhibitor than 3 | less effective and comparable to AraLAM at 10 μg/mL | modest levels of inhibition; also recorded: modest inhibitory properties | less active | only a very modest effect | modest levels of inhibition; also recorded: modest inhibitory properties |  | 
CO[C@H]1O[C@H](CO)[C@@H](O)[C@H](O[C@H]2O[C@H](CSC)[C@H](O)[C@H]2O)[C@@H]1O [Compound 2, Methyl 3-O-(5-deoxy-5-methylthio-α-D-xylofuranosyl)-α-D-mannopyranoside] |  |  | none of these compounds inhibited cytokine induction |  |  | inhibited induction, but to a degree intermediate between 3 and 34 |  |  | appeared to induce production of TNF-α to varying degrees | 
CO[C@H]1O[C@H](CO)[C@@H](O)[C@H](O)[C@@H]1O[C@H]1O[C@H](CSC)[C@H](O)[C@H]1O [Compound 1, Methyl 2-O-(5-deoxy-5-methylthio-α-D-xylofuranosyl)-α-D-mannopyranoside] |  |  | none of these compounds inhibited cytokine induction |  |  | inhibited induction, but to a degree intermediate between 3 and 34 |  |  | appeared to induce production of TNF-α to varying degrees | 
CO[C@H]1O[C@H](CO)[C@@H](O[C@@H]2O[C@@H](CSC)[C@@H](O)[C@@H]2O)[C@H](O)[C@@H]1O [Compound 6, Methyl 4-O-(5-deoxy-5-methylthio-α-L-xylofuranosyl)-α-D-mannopyranoside] |  |  | none of these compounds inhibited cytokine induction |  |  | inhibited induction, but to a degree intermediate between 3 and 34 |  |  | appeared to induce production of TNF-α to varying degrees | 
CO[C@H]1O[C@H](CO)[C@H](O)[C@H]1O [Compound 35, methyl α-D-xylofuranoside, reference compound] |  |  | none of these compounds inhibited cytokine induction |  |  | inhibited induction, but to a degree intermediate between 3 and 34 |  |  | appeared to induce production of TNF-α to varying degrees | 
CO[C@H]1O[C@H](CO)[C@@H](O[C@H]2O[C@H](CSC)[C@H](O)[C@H]2O)[C@H](O)[C@@H]1O [Compound 3, Methyl 4-O-(5-deoxy-5-methylthio-α-D-xylofuranosyl)-α-D-mannopyranoside] | Neither 3 nor 34, when tested at concentrations of 10 or 100 μg/mL, significantly induced the production of these two cytokines; also recorded: did not lead to production | Neither 3 nor 34, when tested at concentrations of 10 or 100 μg/mL, significantly induced the production of these two cytokines; also recorded: did not lead to production | inhibited TNF-α production to a similar degree as a 5 μM concentration of ManLAM |  | modest levels of inhibition; also recorded: modest inhibitory properties |  | only a very modest effect | modest levels of inhibition; also recorded: modest inhibitory properties |  | level of inhibition comparable with ManLAM at 10 μg/mL

Reference: patent US20070219144A1, “IMMUNOMODULATORY SACCHARIDE COMPOUNDS” (University of Alberta, priority 2006, published 2007)
